US20250092039A1, “GLUTARIMIDE-CONTAINING PAN-KRAS-MUTANT DEGRADER COMPOUNDS AND USES THEREOF” (Tiger Biotherapeutics Inc., priority 2022, published 2025)
Where two headings read alike, the source gives them in different places.

Assays:
[1] = biological target: KRAS-G12V/RAF1 (Homo sapiens (Human), UniProt P01116, G12V); experiment: KRAS/RAF1 binding inhibition assay (AlphaScreen)
In short: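 Binding of GppNHp-loaded KRAS G12V to the RAF1 RBD was measured by AlphaScreen with test compound present in 2% DMSO (final), 60 min incubation at 4° C. Signals were converted to % inhibition versus DMSO, and IC50 was obtained by variable-slope nonlinear regression.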

[2] = biological target: KRAS G12V (Homo sapiens (Human), UniProt P01116, G12V); experiment: KRAS G12V degradation in SW620 cells (Western blot, DC50); assay type: cell-based; conditions: 24 hours
In short: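 SW620 cells (homozygous KRAS G12V) were treated with compound for 24 hours at 37° C. KRAS in lysates was measured by Western blot with fluorescent secondary antibodies and expressed relative to DMSO vehicle (100%). DC50 came from a four-parameter variable-slope dose-response fit.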

[3] = tested on: SW620 cells; experiment: 3D cell growth inhibition of SW620 cells carrying endogenous KRAS G12V mutation (CellTiter-Glo 3D, GI50); assay type: cell-based; conditions: Homo sapiens, SW-620, 144 h, read-out: SW620 3D cell growth GI50
In short: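 SW620 cells (endogenous KRAS G12V) grown in 3D were dosed next day with compound from DMSO stocks at various concentrations, then incubated 6 days at 37° C.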

Chain of KRAS G12V (P01116-2 other isoform, or with tags, fused parts or gaps G12V): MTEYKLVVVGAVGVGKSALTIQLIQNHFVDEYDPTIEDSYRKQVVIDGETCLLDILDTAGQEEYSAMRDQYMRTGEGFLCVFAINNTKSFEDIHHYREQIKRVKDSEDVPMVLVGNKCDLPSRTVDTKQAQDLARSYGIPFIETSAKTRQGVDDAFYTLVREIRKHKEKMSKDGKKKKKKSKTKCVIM
Chain of KRAS-G12V/RAF1 (P01116-2 other isoform, or with tags, fused parts or gaps G12V): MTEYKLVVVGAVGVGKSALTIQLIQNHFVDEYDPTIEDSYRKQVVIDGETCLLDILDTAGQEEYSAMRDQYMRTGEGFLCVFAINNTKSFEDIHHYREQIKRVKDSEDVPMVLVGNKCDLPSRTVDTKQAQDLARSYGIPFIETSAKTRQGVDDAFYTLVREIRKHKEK

| SMILES | IC50 [1] | DC50 [2] | GI50 ([3]; SW620 cells, 6 days) | GI50 [3] | DC50 ([2]; cell prints a figure, not a class symbol) |
| --- | --- | --- | --- | --- | --- |
| CCc1cccc2cc(O)cc(-c3ncc4c(N5CCC[C@@](C)(O)C5)nc(OCC5(CN6CCC7(CC6)CC(F)(CN6CCN(c8ccc9c(c8)CN([C@H]8CCC(=O)NC8=O)C9=O)CC6)C7)CC5)nc4c3F)c12 [Compound 173, (S)-3-(5-(4-((7-((1-(((7-(8-ethyl-3-hydroxynaphthalen-1-yl)-8-fluoro-4-((R)-3-hydroxy-3-methylpiperidin-1-yl)pyrido[4,3-d]pyrimidin-2-yl)oxy)methyl)cyclopropyl)methyl)-2-fluoro-7-azaspiro[3.5]nonan-2-yl)methyl)piperazin-1-yl)-1-oxoisoindolin-2-yl)piperidine-2.6-dione] | 20 to 200 nM | < 1 nM | < 10 nM |  |  |
| CCc1c(F)ccc2cc(O)cc(-c3ncc4c(N5CCC[C@@](C)(O)C5)nc(OCC5(CN6CCC(CN7CCC(N8CCN(c9ccc%10c(c9)CN([C@H]9CCC(=O)NC9=O)C%10=O)CC8)CC7)CC6)CC5)nc4c3F)c12 [Compound 148, (S)-3-(5-(4-(1-((1-((1-(((7-(8-ethyl-7-fluoro-3-hydroxynaphthalen-1-yl)-8-fluoro-4-((R)-3-hydroxy-3-methylpiperidin-1-yl)pyrido[4,3-d]pyrimidin-2-yl)oxy)methyl)cyclopropyl)methyl)piperidin-4-yl)methyl)piperidin-4-yl)piperazin-1-yl)-1-oxoisoindolin-2-yl)piperidine-2,6-dione] | < 20 nM | < 1 nM | < 10 nM |  |  |
| CCc1cccc2cc(O)cc(-c3ncc4c(N5CCC[C@@](C)(O)C5)nc(OCC5(CN6CCC(CN7CC8(CCN(c9ccc%10c(c9)CN(C9CCC(=O)NC9=O)C%10=O)CC8)C7)CC6)CC5)nc4c3F)c12 (stereo partly drawn) [Compound 19, 3-(5-(2-((1-((1-(((7-(8-ethyl-3-hydroxynaphthalen-1-yl)-8-fluoro-4-((R)-3-hydroxy-3-methylpiperidin-1-yl)pyrido[4,3-d]pyrimidin-2-yl)oxy)methyl)cyclopropyl)methyl)piperidin-4-yl)methyl)-2,7-diazaspiro[3.5]nonan-7-yl)-1-oxoisoindolin-2-yl)piperidine-2,6-dione] | 20 to 200 nM | 1 to 10 nM | 10 to 100 nM |  |  |
| CCc1c(F)ccc2cc(O)cc(-c3ncc4c(N5CCC[C@@](C)(O)C5)nc(OCC5(CN6CCN(C7CCC8(CC7)CCN(c7ccc9c(c7)CN(C7CCC(=O)NC7=O)C9=O)CC8)CC6)CC5)nc4c3F)c12 (stereo partly drawn) [Compound 171, 3-(5-(9-(4-((1-(((7-(8-ethyl-7-fluoro-3-hydroxynaphthalen-1-yl)-8-fluoro-4-((R)-3-hydroxy-3-methylpiperidin-1-yl)pyrido[4,3-d]pyrimidin-2-yl)oxy)methyl)cyclopropyl)methyl)piperazin-1-yl)-3-azaspiro[5.5]undecan-3-yl)-1-oxoisoindolin-2-yl)piperidine-2,6-dione] | 20 to 200 nM | > 100 nM | 10 to 100 nM |  |  |
| CCc1c(F)ccc2cc(O)cc(-c3ncc4c(N5CCC[C@@](C)(O)C5)nc(OCC5(CN6CCC7(CC6)CC(OC6CCN(c8ccc9c(c8)CN(C8CCC(=O)NC8=O)C9=O)CC6)C7)CC5)nc4c3F)c12 (stereo partly drawn) [Compound 176, 3-(5-(4-((7-((1-(((7-(8-ethyl-7-fluoro-3-hydroxynaphthalen-1-yl)-8-fluoro-4-((R)-3-hydroxy-3-methylpiperidin-1-yl)pyrido[4,3-d]pyrimidin-2-yl)oxy)methyl)cyclopropyl)methyl)-7-azaspiro[3.5]nonan-2-yl)oxy)piperidin-1-yl)-1-oxoisoindolin-2-yl)piperidine-2,6-dione] | 20 to 200 nM | < 1 nM | < 10 nM |  |  |
| CCc1c(F)ccc2cc(O)cc(-c3ncc4c(N5CCC[C@@](C)(O)C5)nc(OCC5(CN6CC(N7CC(CN8CCN(c9ccc%10c(c9)CN([C@@H]9CCC(=O)NC9=O)C%10=O)CC8)C7)C6)CC5)nc4c3F)c12 [Compound 9, (R)-3-(5-(4-((1′-((1-(((7-(8-ethyl-7-fluoro-3-hydroxynaphthalen-1-yl)-8-fluoro-4-((R)-3-hydroxy-3-methylpiperidin-1-yl)pyrido[4,3-d]pyrimidin-2-yl)oxy)methyl)cyclopropyl)methyl)-[1,3′-biazetidin]-3-yl)methyl)piperazin-1-yl)-1-oxoisoindolin-2-yl)piperidine-2,6-dione] | < 20 nM | 1 to 10 nM | 10 to 100 nM |  |  |
| CCc1c(F)ccc2cc(O)cc(-c3ncc4c(N5CCC[C@@](C)(O)C5)nc(OCC5(CN6CCN(CC7CN(c8ccc9c(c8)CN(C8CCC(=O)NC8=O)C9=O)C7)CC6)CC5)nc4c3F)c12 (stereo partly drawn) [Compound 133, 3-[5-[3-[[4-[[1-[[7-(8-ethyl-7-fluoro-3-hydroxy-1-naphthyl)-8-fluoro-4-[(3R)-3-hydroxy-3-methyl-1-piperidyl]pyrido[4,3-d]pyrimidin-2-yl]oxymethyl]cyclopropyl]methyl]piperazin-1-yl]methyl]azetidin-1-yl]-1-oxo-isoindolin-2-yl]piperidine-2,6-dione] | 20 to 200 nM | < 1 nM |  | < 10 nM |  |
| C#Cc1c(F)ccc2cc(N)cc(-c3ncc4c(N5CCC[C@@](C)(O)C5)nc(OCC5(CN6CCC(CN7CCN(c8ccc9c(c8)CN([C@H]8CCC(=O)NC8=O)C9=O)CC7)CC6)CC5)nc4c3F)c12 [Compound 118, (S)-3-(5-(4-((1-((1-(((7-(3-amino-8-ethynyl-7-fluoronaphthalen-1-yl)-8-fluoro-4-((R)-3-hydroxy-3-methylpiperidin-1-yl)pyrido[4,3-d]pyrimidin-2-yl)oxy)methyl)cyclopropyl)methyl)piperidin-4-yl)methyl)piperazin-1-yl)-1-oxoisoindolin-2-yl)piperidine-2,6-dione] | > 200 nM | > 100 nM | > 100 nM |  |  |
| C[C@@]1(O)CCCN(c2nc(OCC3(CN4CCC(CN5CCN(c6ccc7c(c6)CN([C@H]6CCC(=O)NC6=O)C7=O)CC5)CC4)CC3)nc3c(F)c(-c4cc(O)cc5cccc(Cl)c45)ncc23)C1 [Compound 123, (S)-3-(5-(4-((1-((1-(((7-(8-chloro-3-hydroxynaphthalen-1-yl)-8-fluoro-4-((R)-3-hydroxy-3-methylpiperidin-1-yl)pyrido[4,3-d]pyrimidin-2-yl)oxy)methyl)cyclopropyl)methyl)piperidin-4-yl)methyl)piperazin-1-yl)-1-oxoisoindolin-2-yl)piperidine-2,6-dione] | 20 to 200 nM | 1 to 10 nM | 10 to 100 nM |  |  |
| CCc1c(F)ccc2cc(O)cc(-c3ncc4c(N5CCOC[C@@](C)(O)C5)nc(OCC5(CN6CCC(CN7CCN(c8ccc9c(c8)CN([C@H]8CCC(=O)NC8=O)C9=O)CC7)CC6)CC5)nc4c3F)c12 [Compound 104, (3S)-3-[5-[4-[[1-[[1-[[7-(8-ethyl-7-fluoro-3-hydroxy-1-naphthyl)-8-fluoro-4-[(6S)-6-hydroxy-6-methyl-1,4-oxazepan-4-yl]pyrido[4,3-d]pyrimidin-2-yl]oxymethyl]cyclopropyl]methyl]-4-piperidyl]methyl]piperazin-1-yl]-1-oxo-isoindolin-2-yl]piperidine-2,6-dione] | 20 to 200 nM |  | < 10 nM |  | 2 nM |
| CCc1c(F)ccc2cc(O)cc(-c3ncc4c(N5CCC[C@@](C)(O)C5)nc(OCC5(CN6CCC7(CC6)CC(CN6CCN(c8ccc9c(c8)CN([C@H]8CCC(=O)NC8=O)C9=O)CC6)C7)CC5)nc4c3F)c12 [Compound 2, (S)-3-(5-(4-((7-((1-(((7-(8-ethyl-7-fluoro-3-hydroxynaphthalen-1-yl)-8-fluoro-4-((R)-3-hydroxy-3-methylpiperidin-1-yl)pyrido[4,3-d]pyrimidin-2-yl)oxy)methyl)cyclopropyl)methyl)-7-azaspiro[3.5]nonan-2-yl)methyl)piperazin-1-yl)-1-oxoisoindolin-2-yl)piperidine-2,6-dione] | 20 to 200 nM | < 1 nM | 10 to 100 nM |  |  |
| CCc1cccc2cc(O)cc(-c3ncc4c(N5CCCOCC5)nc(OCC5(CN6CCC(CN7CCN(c8ccc9c(c8)CN([C@H]8CCC(=O)NC8=O)C9=O)CC7)CC6)CC5)nc4c3F)c12 [Compound 110, (S)-3-(5-(4-((1-((1-(((7-(8-ethyl-3-hydroxynaphthalen-1-yl)-8-fluoro-4-(1,4-oxazepan-4-yl)pyrido[4,3-d]pyrimidin-2-yl)oxy)methyl)cyclopropyl)methyl)piperidin-4-yl)methyl)piperazin-1-yl)-1-oxoisoindolin-2-yl)piperidine-2,6-dione] | > 200 nM | > 100 nM | > 100 nM |  |  |
| C[C@@]1(O)CCCN(c2nc(OCC3(CN4CCC5(CC4)CC(CN4CCN(c6ccc7c(c6)CN([C@H]6CCC(=O)NC6=O)C7=O)CC4)C5)CC3)nc3c(F)c(-c4cc(O)cc5cccc(Cl)c45)ncc23)C1 [Compound 129, (S)-3-(5-(4-((7-((1-(((7-(8-chloro-3-hydroxynaphthalen-1-yl)-8-fluoro-4-((R)-3-hydroxy-3-methylpiperidin-1-yl)pyrido[4,3-d]pyrimidin-2-yl)oxy)methyl)cyclopropyl)methyl)-7-azaspiro[3.5]nonan-2-yl)methyl)piperazin-1-yl)-1-oxoisoindolin-2-yl)piperidine-2,6-dione] | 20 to 200 nM | < 1 nM | 10 to 100 nM |  |  |
